Laboratory results: ChEMBL document CHEMBL1275569, “Plasmid-mediated 16S rRNA methylases among extended-spectrum beta-lactamase-producing Enterobacteriaceae isolates” (2008)
≈ marks a conversion by molar mass, not a printed value.

Key:
[1] = system: Escherichia coli; assay: Antimicrobial activity against armA positive Escherichia coli TOP10 producing beta lactamase CTX-M-3 with plasmid BEH by Etest method; format: functional
[2] = system: Escherichia coli; assay: Antimicrobial activity against beta lactamase CTX-M-14 producing Escherichia coli TOP10 harboring plasmid COP2 by Etest method; format: functional
[3] = system: Escherichia coli; assay: Antimicrobial activity against rmtB positive Escherichia coli VOG producing beta lactamase CTX-M-14 by Etest method; format: functional
[4] = system: Enterobacter cloacae; assay: Antimicrobial activity against armA positive Enterobacter cloacae BEH producing beta lactamase CTX-M-3 by Etest method; format: functional
[5] = system: Escherichia coli; assay: Antimicrobial activity against Escherichia coli TOP10 harboring plasmid VOG2 expressing CTX-M-14 and AAC(6 )-Ib gene by Etest method; format: functional
[6] = system: Escherichia coli; assay: Antimicrobial activity against armA positive Escherichia coli TOP10 producing beta lactamase CTX-M-3 with plasmid MEZ by Etest method; format: functional
[7] = system: Escherichia coli; assay: Antimicrobial activity against armA positive Escherichia coli TOP10 producing beta lactamase CTX-M-3 with plasmid DU by Etest method; format: functional
[8] = system: Klebsiella pneumoniae; assay: Antimicrobial activity against armA positive Klebsiella pneumoniae DU producing beta lactamase CTX-M-3 by Etest method; format: functional
[9] = system: Escherichia coli; assay: Antimicrobial activity against armA positive Escherichia coli TOP10 harboring plasmid COP1 by Etest method; format: functional
[10] = system: Escherichia coli; assay: Antimicrobial activity against armA positive Escherichia coli COP producing beta lactamase CTX-M-14 by Etest method
[11] = system: Escherichia coli; assay: Antimicrobial activity against Escherichia coli TOP10 harboring plasmid VOG1 expressing RmtB, TEM-1, and QepA gene by Etest method; format: functional
[12] = system: Escherichia coli; assay: Antimicrobial activity against Escherichia coli TOP10 by Etest method; format: functional
[13] = system: Escherichia coli; assay: Antimicrobial activity against armA positive Escherichia coli MEZ producing beta lactamase CTX-M-3 by Etest method; format: functional

| Compound | MIC [1] | MIC [2] | MIC [3] | MIC [4] | MIC [5] | MIC [6] | MIC [7] | MIC [8] | MIC [9] | MIC [10] | MIC [11] | MIC [12] | MIC [13] |
| --- | --- | --- | --- | --- | --- | --- | --- | --- | --- | --- | --- | --- | --- |
| CC(C)(O/N=C(\C(=O)N[C@@H]1C(=O)N2C(C(=O)[O-])=C(C[n+]3ccccc3)CS[C@H]12)c1csc(N)n1)C(=O)O [CEFTAZIDIME] | 8 µg/mL (≈ 14.6 µM) | 1 µg/mL (≈ 1.83 µM) | 6 µg/mL (≈ 11 µM) | 16 µg/mL (≈ 29.3 µM) | 2 µg/mL (≈ 3.66 µM) | 3 µg/mL (≈ 5.49 µM) | 2 µg/mL (≈ 3.66 µM) | 2 µg/mL (≈ 3.66 µM) | 0.38 µg/mL (≈ 0.695 µM) | 1 µg/mL (≈ 1.83 µM) | 0.38 µg/mL (≈ 0.695 µM) | 0.38 µg/mL (≈ 0.695 µM) | 3 µg/mL (≈ 5.49 µM) |
| CCn1cc(C(=O)O)c(=O)c2cc(F)c(N3CCNCC3)cc21 [NORFLOXACIN] | 0.016 µg/mL (≈ 0.0501 µM) | < 0.016 µg/mL | > 256 µg/mL | 1 µg/mL (≈ 3.13 µM) | < 0.016 µg/mL | 0.016 µg/mL (≈ 0.0501 µM) | 0.016 µg/mL (≈ 0.0501 µM) | 0.75 µg/mL (≈ 2.35 µM) | < 0.016 µg/mL | > 256 µg/mL | 0.032 µg/mL (≈ 0.1 µM) | < 0.016 µg/mL | > 256 µg/mL |
| O=C(O)c1cn(C2CC2)c2cc(N3CCNCC3)c(F)cc2c1=O [CIPROFLOXACIN] | < 0.002 µg/mL |  | > 32 µg/mL |  |  | < 0.002 µg/mL | < 0.002 µg/mL | 0.125 µg/mL (≈ 0.377 µM) |  | > 32 µg/mL |  | < 0.002 µg/mL | > 32 µg/mL |
| NC[C@H]1O[C@H](O[C@H]2[C@H](O)[C@@H](O[C@H]3O[C@H](CO)[C@@H](O)[C@H](N)[C@H]3O)[C@H](N)C[C@@H]2N)[C@H](N)C[C@@H]1O [TOBRAMYCIN] | > 256 µg/mL | 0.19 µg/mL (≈ 0.406 µM) | > 256 µg/mL | > 256 µg/mL | 3 µg/mL (≈ 6.42 µM) | > 256 µg/mL | > 256 µg/mL | > 256 µg/mL |  | > 256 µg/mL |  | 0.38 µg/mL (≈ 0.813 µM) | > 256 µg/mL |
| NCC[C@H](O)C(=O)N[C@@H]1C[C@H](N)[C@@H](O[C@H]2O[C@H](CN)[C@@H](O)[C@H](O)[C@H]2O)[C@H](O)[C@H]1O[C@H]1O[C@H](CO)[C@@H](O)[C@H](N)[C@H]1O [AMIKACIN] | > 256 µg/mL | 1 µg/mL (≈ 1.71 µM) | > 256 µg/mL | > 256 µg/mL | 1.5 µg/mL (≈ 2.56 µM) | > 256 µg/mL | > 256 µg/mL | > 256 µg/mL |  | > 256 µg/mL |  | 1 µg/mL (≈ 1.71 µM) | > 256 µg/mL |
| GENTAMICIN | > 256 µg/mL | 0.125 µg/mL | > 256 µg/mL | > 256 µg/mL | 0.25 µg/mL | > 256 µg/mL | > 256 µg/mL | > 256 µg/mL | > 256 µg/mL |  | > 256 µg/mL | 0.25 µg/mL | > 256 µg/mL |
| CO/N=C(\C(=O)N[C@@H]1C(=O)N2C(C(=O)O)=C(COC(C)=O)CS[C@H]12)c1csc(N)n1 [CEFOTAXIME] | > 32 µg/mL | 8 µg/mL (≈ 17.6 µM) | > 32 µg/mL | > 32 µg/mL |  | > 32 µg/mL | > 32 µg/mL | > 32 µg/mL | 0.047 µg/mL (≈ 0.103 µM) | > 32 µg/mL | 0.047 µg/mL (≈ 0.103 µM) | 0.047 µg/mL (≈ 0.103 µM) | > 32 µg/mL |
| C[C@@H](O)[C@H]1C(=O)N2C(C(=O)O)=C(SCCNC=N)C[C@H]12 [IMIPENEM ANHYDROUS] | 0.19 µg/mL (≈ 0.635 µM) | 0.19 µg/mL (≈ 0.635 µM) | 0.19 µg/mL (≈ 0.635 µM) | 0.19 µg/mL (≈ 0.635 µM) | 0.19 µg/mL (≈ 0.635 µM) | 0.19 µg/mL (≈ 0.635 µM) | 0.19 µg/mL (≈ 0.635 µM) | 0.19 µg/mL (≈ 0.635 µM) | 0.19 µg/mL (≈ 0.635 µM) | 0.19 µg/mL (≈ 0.635 µM) | 0.19 µg/mL (≈ 0.635 µM) | 0.19 µg/mL (≈ 0.635 µM) | 0.19 µg/mL (≈ 0.635 µM) |
| CCN[C@@H]1C[C@H](N)[C@@H](O[C@H]2OC(CN)=CC[C@H]2N)[C@H](O)[C@H]1O[C@H]1OC[C@](C)(O)[C@H](NC)[C@H]1O [NETILMICIN] | > 256 µg/mL | 0.125 µg/mL (≈ 0.263 µM) | > 256 µg/mL | > 256 µg/mL | 1.5 µg/mL (≈ 3.15 µM) | > 256 µg/mL | > 256 µg/mL | > 256 µg/mL |  | > 256 µg/mL |  | 0.25 µg/mL (≈ 0.526 µM) | > 256 µg/mL |
